In one assay the test system is MroB/C. Nature of the assay: MroB/C dehydration (Dha formation) of MroA precursor peptide variants, MALDI-TOF-MS / LC-MS/MS. The class given is biochemical, Micromonospora rosaria. The note with it: for dehydration by MroBC (site and extent): MroBC assays followed by LC-MS/MS analysis, result in words. As for the experimental part: (§1) In a 0.65 mL protein low-binding Eppendorf tube placed on ice. 0.75 μL of purified mroA variant template DNA was mixed with 0.75 μL of Solution B and 1 μL of Solution A of PURExpress In vitro Protein Synthesis Kit (E6800L) purchased from NEB (total volume of reaction is 2.5 μL). The translation reactions were performed at 37° C. for 1 h on an aluminum block.
For a full MroBCD substrate scope investigation, a total translation volume for each variant of 7.5 μL was performed. 1.5 μL of 90 mM iodoacetamide (IAA) was added to quench dithiothreitol (DTT) in the translation reaction mixture, a thiol-based nucleophile that can react with electrophilic dehydroalanines generated from MroBC-catalyzed dehydration assays. The translation product was split into two parts with these corresponding volumes: 3 μL and 6 μL. In the 6 μL part. 10.2 μL of the enzyme mix containing enzymes and cofactors was added along with 1.8 μL 90 mM ATP (pH 7.5), which was used to initiate the reaction. The enzyme mix was made by adding these components in the following order: HEPES pH 7.5, MgCl2, glutamate, T. bispora tRNA^Glu (CUC), thermostable inorganic pyrophosphatase (TIPP), TEV (L56V/S135G/S219V) (w/w ratio with a total amount of MBP-tagged protein=1:10), MBP-MroB, MBP-MroC, and T. bispora GluRS. The enzyme mix was incubated 25 min at room temperature before adding to the translation product to facilitate in situ TEV-catalyzed cleavage of MBP from MBP-MroB and MBP-MroC. The enzymatic reaction proceeded for 1 h at room temperature. Overall, the concentration of components in the 18 μL reaction mix is as follows: 50 mM HEPES pH 7.5, 5 mM MgCl2. L-glutamate 1 mM, 3 μM T. bispora tRNA^Glu, 1 μM T. bispora GluRS, 2 μM MBP-MroB, 2 μM MBP-MroC, […], 0.027 U/μL TIPP, and 5 mM IAA. In addition, the 3 μL part was incubated with the same buffer lacking enzymes and tRNA as a translation control.
The reactions were performed similarly as described above, with 10 μM substrate concentration and without IAA. The total volume of each reaction is 100 μL.
Enzymatic assays were desalted using solid-phase extraction prior to LC-ESI-MS/MS analysis. Specifically, except for the thiazol(in)es-containing pyritide (which utilize 8 mg Pierce C18 Spin Column), the samples were applied to Toptip C18 (10-200 μL, Glygen Corp) wetted with 50 μL of 80% acetonitrile (0.1% formic acid) and equilibrate with 150 μL of 0.1% formic acid following the manufacturer instructions. The C18 columns (tips) are then washed with 150 μL of 0.1% formic acid and eluted using 100 μL 80% acetonitrile (0.1% formic acid). The samples were then dried utilizing lyophilization and redissolved in 25% acetonitrile (80 μL for enzymatic assays of in vitro-translated substrates and 200 μL for enzymatic assays of purified substrates). Then 20 μL of each sample was injected into an Agilent AdvanceBio Peptide Plus column (2.1×150 mm, 2.7 μm) equipped with an Agilent 6545B Q-TOF interfaced with an Agilent 1290 Infinity II LC system. Mobile phase solvents were composed of H2O, 0.1% formic acid (Solvent A), and acetonitrile 0.1% formic acid (Solvent B). The column compartment was maintained at 35° C. during all experiments. The column was equilibrated with 5 column volumes of starting mobile phase (95% A and 5% B) between injections. The gradient of all LC runs was as follows: 0-2 min: 95% A 5% B, 2-3 min: 70% A 30% B, 3-18 min: 20% A 80% B, 18-20 min: 5% A 95% B. The samples were run to waste for the first 3 min before applying to the mass spectrometer. Mass range was set from 100 to 1700 m/z (except for 412MroA1 W7G: 100-3000 m/z). MS parameters were as follows: gas, 320° C. at 8 L/min: nebulizer, 35 psig: nozzle voltage, 1000 V: sheath gas, 350° C. at 11 L/min: capillary, 3500 V: fragmentor, 125 V: skimmer, 65 V: MS scan rate (10) spectra/s): MS-MS scan rate (5 spectra/s); and isolation width (MS/MS), 1.3 m z. […]

The test system of the next assay is MroB. Nature of the assay: Competition fluorescence polarization with fluorescein-Δ12MroA1, MroB. The class given is binding, Micromonospora rosaria. The conditions noted are these: for IC50: competition FP, 80 nM enzyme, 5 nM labeled Δ12MroA1. Here is the method: (§2) The initial sample contained 80 nM enzyme, 5 nM labeled Δ12MroA1 peptide, and competitor peptide (concentration is from 20 μM to 100 μM, depending on the experiment). In a black 384-well plate (Corning 3575), 30 μL of initial sample was added to the first well, followed by 13 2-fold dilutions into subsequent wells containing 80 nM MBP-MroB and 5 nM labeled Δ12MroA1. The plate was covered from light and incubated at room temperature for 10 min, and then fluorescence polarization was measured (Biotek Synergy H4 hybrid reader) using the following filter (Ex: Em—485 nm/20 nm: 518 nm/20 nm). The obtained data was converted to anisotropy value and plotted against peptide concentration, and fitted to dose-response function:
(§3) Where: y=anisotropy value, A1=minimum anisotropy, A2=maximum anisotropy, p=Hill's coefficient, x=competitor concentration. The obtained IC50 was used to calculate inhibitor constant Krusing the following equation: 12
(§4) In cases where competitor concentration was not high enough to achieve a plateau, the competition curve was fitted with minimum anisotropy fixed to be the same value as the anisotropy value of the free probe solution. This calculation assumed that the labeled peptide was completely displaced from the enzyme binding pocket at a very high concentration of the competitor. […] The specific minimum anisotropy used in this experiment for both MroB and MroD was 65.
A general note: Fluorescence polarisation rises when a labelled molecule tumbles more slowly, as on binding a larger partner.

The test system of assay [1] is MroD. Briefly: Competition fluorescence polarization with fluorescein-Δ12MroA1, MroD. The format is binding, Micromonospora rosaria. The conditions noted are these: competition FP, 80 nM enzyme, 5 nM labeled Δ12MroA1. As for the experimental part:
as §2, §3, §4

Assay [2] deals with MBP-MroB (Micromonospora rosaria MroB with maltose-binding protein fused to the N-terminus) (Micromonospora rosaria) [MBP: P0AEX9]. Nature of the assay: competition fluorescence polarization against fluorescein-Δ12MroA1.
In assay [3] the target is MBP-MroD (Micromonospora rosaria MroD with maltose-binding protein fused to the N-terminus) (Micromonospora rosaria) [MBP: P0AEX9]. The description is as above.
The subject of another assay is MroBCD. Briefly: MroBCD treatment of precursor peptides, overall pyritide biosynthesis. The class given is biochemical, Micromonospora rosaria. The conditions noted are these: result in words. Here is the method: as §1
For a full MroBCD substrate scope investigation, a total translation volume for each variant of 7.5 μL was performed. 1.5 μL of 90 mM iodoacetamide (IAA) was added to quench dithiothreitol (DTT) in the translation reaction mixture, a thiol-based nucleophile that can react with electrophilic dehydroalanines generated from MroBC-catalyzed dehydration assays. The translation product was split into two parts with these corresponding volumes: 3 μL and 6 μL. In the 6 μL part. 10.2 μL of the enzyme mix containing enzymes and cofactors was added along with 1.8 μL 90 mM ATP (pH 7.5), which was used to initiate the reaction. […]
After incubation, the enzyme reaction (18 μL) was split into two equal parts. […] The crystallized spots were then analyzed using MALDI-TOF-MS (Bruker Ultraflex). […]

Assay [4] deals with MroD. Briefly: MroD [4+2] macrocyclization of didehydrated MroA2 variants, MALDI-TOF-MS. The class given is biochemical, Micromonospora rosaria. Also on record: key: +++ indicates enzyme activity roughly equal to wild-type MroA2; ++ indicates modestly reduced enzyme activity; + indicates severely reduced enzyme activity; − indicates no detectable enzyme activity (no macrocycles observed). The conditions noted are these: MroA2 multi-site variants; qualitatively estimated from leader peptide vs remaining didehydrated intermediate. As for the experimental part:
After incubation, the enzyme reaction (18 μL) was split into two equal parts. One part was treated with MBP-MroD such that the final concentration of MBP-MroD is 3 μM, and the other part was added the same volume but with buffer lacking MBP-MroD (50 mM HEPES, 300 mM NaCl, 2.5% glycerol, 0.5 mM TCEP). The reaction further proceeded for 1.5 h at room temperature. All reaction mixture was then desalted with solid-phase extraction using Ziptip with 0.6 μL C18 resin (EMD Millipore) and crystallized on an MTP384 steel target plate using either saturated sinapic acid or 50 mg/mL Super DHB [dissolved in 60% acetonitrile and 0.1% trifluoroacetic acid (TFA)] as the matrix. The crystallized spots were then analyzed using MALDI-TOF-MS (Bruker Ultraflex). The external standard for MALDI-TOF-MS analysis is ProteoMass Peptide and Protein MALDI-MS Calibration Kit (Sigma).

The target of assay [5] is MBP-MroB (Micromonospora rosaria MroB with maltose-binding protein fused to the N-terminus) (Micromonospora rosaria) [MBP: P0AEX9]. Nature of the assay: fluorescence polarization, MBP-MroB titrated against labeled peptide.
For assay [6], the target named is MBP-MroD (Micromonospora rosaria MroD with maltose-binding protein fused to the N-terminus) (Micromonospora rosaria) [MBP: P0AEX9]. Nature of the assay: fluorescence polarization, MBP-MroD titrated against labeled peptide.

Where a SMILES comes first, the peptide text is derived from it.

Data on 14 molecules can be found in patent US20260132172A1, “IN VITRO BIOSYNTHESIS OF DIVERSE PYRIDINE-BASED MACROCYCLIC PEPTIDES” (The Brd. of Trustees of the Univ. of Illinois, priority 2022, published 2026).

As a reminder, the IC50 is the concentration needed to halve the response being measured. What is called Kd is a measure of binding affinity in units of concentration.

On to “Ac-GASGWLGSWVI-OH [GlyAla-MroA1 core, Ac-GASGWLGSWVI]”, for which, in the assay with MroB/C, the “dehydration by MroBC (site and extent)” value is listed as “only Ser6 is dehydrated”. In addition, the half-inhibitory concentration (IC50) came to 27.2 ± 1.9 µM with MroB and 40.9 ± 5 µM in the assay with MroD [1].
In the case of “H-SDLDIVDLDLAVDEELAALSVGGLGNTEVGA-OH [Δ12MroA1 Leader]”, the IC50 with MroB came out at 19.4 ± 1.6 µM; in the assay on MroD [1], 16 ± 4.4 µM.
For the molecule GlyAla-MroA1 core (peptide), the IC50 is 27.2 µM in assay [2] and 40.9 µM in assay [3].
In the assay on MroB/C (MroA2 multi-site variants, in vitro translated, MALDI-TOF-MS), “SGFFGRSWLI [MroA2, wild-type precursor peptide of M. rosaria]” displayed a Dha formation of 2 Dha. The “overall pyritide biosynthesis (dehydration and macrocyclization) by MroBCD” value in the assay with MroBCD was “yielding the expected pyritides”. Further, the “Relative MroD conversion” value with MroD [4] is “+++”.
As for Δ12MroA1 Leader (peptide), the IC50 in assay [2] stood at 19.4 µM; in assay [3] it was 16 µM.
The matching figures for Δ12MroA1-W7G (peptide): 8.1 µM and 2.4 µM.
With Δ12MroA1-I9G (peptide), the IC50 in assay [2] came to 2 µM; in assay [3] it was 0.91 µM.
Consider “H-SDLDIVDLDLAVDEELAALSVGGLGNTEVGASGWLGSWVI-OH [Δ12MroA1]”, for which the IC50 in the assay on MroB was 0.68 ± 0.04 µM; in the assay with MroD [1], 0.9 ± 0.02 µM. Further, the “overall pyritide biosynthesis (dehydration and macrocyclization) by MroBCD” value in the assay with MroBCD is “full dehydration and macrocyclization”.
On to “fluorescein-Δ12MroA1 (Δ12MroA1 N-terminally labeled with fluorescein) (peptide)”, for which the Kd was 0.06 µM in [5] and 0.012 µM in assay [6].
“H-SDLDIVDLDLAVDEELAALSVGGLGNTEVGASGWLGSWVG-OH [Δ12MroA1-I9G]”: the figures for the IC50 in the assay on MroB and with MroD [1] were 2 ± 0.6 µM and 0.91 ± 0.09 µM, respectively.
Take `CC[C@H](C)[C@H](NC(=O)[C@H](CC(=O)O)NC(=O)[C@H](CC(C)C)NC(=O)[C@H](CC(=O)O)NC(=O)[C@@H](N)CO)C(=O)N[C@H](C(=O)N[C@@H](CC(=O)O)C(=O)N[C@@H](CC(C)C)C(=O)N[C@@H](CC(=O)O)C(=O)N[C@@H](CC(C)C)C(=O)N[C@@H](C)C(=O)N[C@H](C(=O)N[C@@H](CC(=O)O)C(=O)N[C@@H](CCC(=O)O)C(=O)N[C@@H](CCC(=O)O)C(=O)N[C@@H](CC(C)C)C(=O)N[C@@H](C)C(=O)N[C@@H](C)C(=O)N[C@@H](CC(C)C)C(=O)N[C@@H](CO)C(=O)N[C@H](C(=O)NCC(=O)NCC(=O)N[C@@H](CC(C)C)C(=O)NCC(=O)N[C@@H](CC(N)=O)C(=O)N[C@H](C(=O)N[C@@H](CCC(=O)O)C(=O)N[C@H](C(=O)NCC(=O)N[C@@H](C)C(=O)N[C@@H](CO)C(=O)NCC(=O)N[C@@H](Cc1c[nH]c2ccccc12)C(=O)N[C@@H](CC(C)C)C(=O)NCC(=O)N[C@@H](CO)C(=O)N[C@@H](Cc1c[nH]c2ccccc12)C(=O)N[C@H](C(=O)N[C@H](C(=O)OC)[C@@H](C)CC)C(C)C)C(C)C)[C@@H](C)O)C(C)C)C(C)C)C(C)C` [Δ12MroA1-COOMe] (H-SDLDIVDLDLAVDEELAALSVGGLGNTEVGASGWLGSWVI-OMe): the values for the IC50 in the assay on MroB and in the assay with MroD [1] were 4.2 ± 1.7 µM and 0.4 ± 0.06 µM, respectively. Moreover, the “loss in binding affinity to MroB” value in the assay with MroB (relative to Δ12MroA1) is approximately 8 fold.
Regarding “H-SDLDIVDLDLAVDEELAALSVGGLGNTEVGASGWLGSGVI-OH [Δ12MroA1-W7G]”, the “dehydration by MroBC (site and extent)” value in the assay with MroB/C was “only Ser1 is predominantly dehydrated”. Also, the IC50 is 8.1 ± 3.9 µM with MroB and 2.4 ± 0.3 µM in the assay with MroD [1].
Consider “Δ12MroA1 (variant of MroA1 in which the first 12 residues were deleted) (peptide)”, for which the IC50 in assay [2] was found to be 0.68 µM; in assay [3], 0.9 µM.
With “H-SDLDIVDLDLAVDEELAALSVGGLGNTEVGASGWLGSWGI-OH [Δ12MroA1-V8G]”, the IC50 stood at 1.1 ± 0.2 µM in the assay on MroB and 1.7 ± 0.4 µM in the assay with MroD [1].
